Results on one molecule are retold here after patent US7414042B2, “Method and composition for selectively inhibiting melanoma” (The Board of Trustees of The University of Illinois, priority 1995, dated 2008).

In brackets after ≈: the same amount, converted by molar mass.

Data set [1] relates to Walker 256 murine carcinosarcoma. As to conditions: cited from earlier work.
A further data set concerns MEL-2 cells. The data set can be described thus: Formation of the 50 Kbp DNA fragment (apoptosis), field-inversion gel electrophoresis. The class given is cell-based, human. The text has this: Therefore, an important feature of the present invention is a method of analyzing and quantifying the formation of the 50 Kbp fragment as a biomarker for induction of apoptosis in human cancer cell lines. This method comprises treatment of cells in culture, followed by analysis of the total cellular DNA content using agarose field-inversion gel electrophoresis. Under these conditions, the 50 Kbp fragment is resolved as a diffuse band. The fraction of the total cellular DNA represented by the 50 Kbp fragment is determined by densitometry on the contour of this band.
To investigate the ability of betulinic acid to induce apoptosis, the above-described method was adapted for use with the MEL-2 cell line. […]
With further respect to FIG. 3A, cultured MEL-2 cells (10^6 cells inoculated per 25 cm^2 flask) were treated with […] betulinic acid (200 μg/ml DMSO, diluted 1:100 in media) for 24, 32, 48, 56 and 72 hours. […] Samples were analyzed on a 1% agarose gel in a Hoefer HE100 SuperSub apparatus cooled to 10° C. by a circulating water bath. […]
Electrophoresis was performed at 172 volts for a total of 18 hours using two sequential field inversion programs with pulse ramping. The DNA/ethidium bromide fluorescence was excited on a UV transilluminator and photographed using Polaroid type 55 P/N film. The negative was analyzed using a PDI scanning densitometer and Quantity One software. […]

A further data set concerns human lymphocytes. The data set can be described thus: Formation of the 50 Kbp DNA fragment in normal cells. Conditions: 2 and 20 μg/ml, time-course. It counts as cell-based.
The next data set has as its system UISO MEL-1 cells. The data set can be described thus: In vivo activity against MEL-1 tumors in athymic mice. Conditions: 5, 50 or 250 mg/kg/dose IP betulinic acid/PVP every fourth day, six doses. The method, then: In particular, with respect to FIGS. 4 and 5, four week old athymic mice were injected subcutaneously in the right flank with 5.0×10^8 UISO MEL-1 cells. Drug treatment was initiated on the day following tumor cell injection and continued every fourth day for a total of six doses. Four control animals received 0.5 ml intraperitoneal (IP) saline, while treated animals (4 per group) received 5, 50 or 250 mg/kg/dose IP betulinic acid/PVP in dd H2O. The mice were weighed, and tumors were measured with a micrometer every third day throughout the study. Treated animals were sacrificed and autopsied on day 41, when the mean tumor volume in the control mice was approximately 0.5 cm^3. The control mice then received six doses of 50 mg/kg every fourth day beginning day 41 and were sacrificed and autopsied on day 71.

The subject of another data set is MEL-2 (melanoma). Description: Cytotoxicity against cultured human melanoma cells (SRB). The class given is cell-based. How it is done:
(§1) The plates were incubated for three days. […] Dose response studies were performed to generate ED50 values.

For data set [2] the following is noted: 200 and 400 mg/kg doses; cited from earlier work.
For data set [3], the system named is human melanoma and nonmelanoma cancer cell lines. Description: Cytotoxicity profile across the panel of human cancer cell lines. Conditions: all Table 1 cell lines other than MEL-2.
Description: In the following Table 1, the extracted betulinic acid and the other pure compounds were tested for cycotoxity against the following cultured human cell lines: A431 (squamous cells), BC-1 (breast), COL-2 (colon), HT-1080 (sarcoma), KB (human oral epidermoid carcinoma), LNCaP (prostate), LU-1 (lung), MEL-2 (melanoma), U373 (glioma) and ZR-75-1 (breast).
Cytotoxicity of the crude extracts and purified compounds was determined in a number of cultured human cancer cell lines. The cells were cultured in appropriate media and under standard conditions. To maintain logarithmic growth, the media were changed 24 hours prior to cytotoxic assays. On the day of the assay, the cells were harvested by trypsinization, counted, diluted in media, and added to 96-well plates containing test compounds dissolved in DMSO; the final DMSO concentration was 0.05%.
The plates were incubated for three days. Following the incubation period, the cells were fixed and stained with sulforhodamine B (SRB) dye. The bound dye was liberated with Tris base, and the OD515 was measured on an ELISA reader. The growth of the betulinic acid-treated cells was determined by the OD515 values, and the growth was compared to the OD515 values of DMSO-treated control cells. Dose response studies were performed to generate ED50 values.
The biological evaluation of the derivatives focused on the activity against human melanoma cell lines. In particular, the following betulinic acid derivatives were prepared and tested for cytotoxicity profile against human melanoma cell lines and against a number of selected nonmelanoma cell lines.
In another data set the test system is LOX melanoma cell line. The data set can be described thus: Cytotoxicity of betulinic acid derivatives. It counts as cell-based, human. Conditions: Tables 2-6. How it is done: as §1
The subject of another data set is MEL-6 melanoma cell line. The data set can be described thus: Cytotoxicity of betulinic acid derivatives. The class given is cell-based, human. As to conditions: Tables 2-6. The method, then: as §1
Data set [4] concerns MALE-3M melanoma cell line. Description: Cytotoxicity of betulinic acid derivatives. The class given is cell-based, human. Conditions: Tables 2-6. How it is done: as §1
The next data set has as its system MEL-8 melanoma cell line. Description: Cytotoxicity of betulinic acid derivatives. The class given is cell-based, human. As to conditions: Tables 2-6. The method, then:
as §1

In data set [5] the test system is L1210 murine lymphocytic leukemia. Conditions: 200 mg/kg; cited from earlier work.

Consider `C=C(C)[C@@H]1CC[C@]2(C(=O)O)CC[C@]3(C)[C@H](CC[C@@H]4[C@@]5(C)CC[C@H](O)C(C)(C)[C@@H]5CC[C@]43C)[C@@H]12` [Compound 10, 3β-hydroxy-lup-20(29)-ene-28-oic acid], for which the “antitumor activity, Walker 256, subsequent report” value in data set [1] (400 mg/kg) was “inactive”. Moreover, the “antitumor activity, Walker 256” value in [1] (300 and 500 mg/kg body weight) is “dose-dependent activity”. Besides, the “treatment period at maximum induction of the 50 Kbp fragment” value in the data set on MEL-2 cells (2 μg/ml betulinic acid (FIG. 3A)) came to 56 h. The “ED50 of the apoptotic response (50 Kbp fragment)” value in the data set with MEL-2 cells (MEL-2 cells treated for 56 hours (FIG. 3B)) is recorded as “about 1.5 μg/ml”. In addition, the “formation of the 50 Kbp fragment in human lymphocytes” value with human lymphocytes was “did not demonstrate formation of the 50 Kbp fragment”. In addition, the “activity against MEL-1 tumors (FIGS. 4 and 5)” value in the data set on UISO MEL-1 cells was “showed activity against MEL-1 cells”. Moreover, the IC50 with MEL-2 (melanoma) (Homo sapiens, MEL2, 72 h, three days incubation, SRB, Table 1 and text, read-out: ED50 MEL-2) was around 2 µg/mL (≈ 4.38 µM). Besides, in the data set with MEL-2 (melanoma) (derivatives, Tables 2-6), the “ED50 (Std. Dev.) MEL-2” value is on record as 1.2 (0.1) μg/mL. Besides, the “ED50 MEL-2” value with MEL-2 (melanoma) (three days incubation, SRB, Table 1 and text, listed as Betulinic acid) was found to be 2.0 µg/mL (≈ 4.38 µM). For the same molecule, in [2], the “activity in Hippocratic screen” value was “inactive”. In addition, in data set [3], the “ED50, other cancer cell lines tested” value is “greater than 20 μg/ml”. Besides, the “ED50 (Std. Dev.) LOX” value in the data set on LOX melanoma cell line is above 20 µg/mL. The “ED50 (Std. Dev.) MEL-6” value in the data set with MEL-6 melanoma cell line is recorded as 13.2 (1.5) μg/mL. Further, the “ED50 (Std. Dev.) MALE-3M” value in data set [4] is on record as 17.6 (0.5) μg/mL. In addition, the “ED50 (Std. Dev.) MEL-8” value in the data set on MEL-8 melanoma cell line is listed as 1.0 (0.3) μg/mL. In addition, the “antitumor activity, L1210” value in data set [5] was “inactive”.
